{
  "source": "patent US11844801B2",
  "about": "“Oral compositions of MK2 pathway inhibitor for treatment of immune conditions” (priority 2020, dated 2023)",
  "tested_on": "IL-8",
  "experiment": "Ex vivo LPS-stimulated IL-8 in blood of dosed healthy subjects, PK/PD inhibitory Emax model",
  "set-up": "species or system human",
  "experimental": "Blood samples of 10 mL were collected for PD analysis. For the SAD cohorts, blood was collected before dosing and 1, 12, and 24 hours after dosing. For the MAD cohorts, on day 1 blood was collected before the morning dose and 4 and 12 hours after the morning dose (prior to the evening dose); on day 7, blood was collected before the morning dose and 4 and 12 hours after the morning dose.\nAdditional details of the assays for analyzing p-HSP27 and cytokines are included in the Supplementary Information.\nPharmacodynamics. PD data analysis was conducted using Microsoft Excel 2010 (Microsoft, Redmond, WA), Meso Scale Discovery Workbench® analysis software (Rockville, MD), and Phoenix WinNonlin, version 8.2.\nSample Preparation for Cytokine Analysis. For each sample, 180 μL aliquots were transferred into 7 wells of a round bottom 96 well tissue culture polystyrene low evaporation plate. […] No outer wells on the plates were used and all wells surrounding the samples contained 200 μL of phosphate buffered saline.\nDMSO was added to all wells in groups ‘A’ and ‘C’ to a final concentration of 0.1% ([…] of a 2% DMSO solution in DMEM containing 10% FBS and 1% penicillin/streptomycin/glutamine). […] Samples were mixed gently for 30 seconds on a plate shaker using pin tools, then placed in an incubator at 37° C./5% CO2 for 1 hour.\nSamples in groups ‘A’ and ‘B’ were stimulated with lipopolysaccharide at a final concentration of 100 ng/mL. A stock solution of lipopolysaccharide at 1 mg/mL in DMEM containing 10% FBS and 1% penicillin/streptomycin was diluted to […] in DMEM containing 10% FBS and 1% penicillin/streptomycin, and […] of this working solution was added per well of blood for all samples in groups ‘A’ and ‘B’. […] of DMEM containing 10% FBS only was added per well of blood for all samples in group ‘C’ (unstimulated samples). Samples were mixed gently for 30 seconds on a plate shaker using pin tools, then placed in an incubator at 37° C./5% CO2 for 5 hours.\nFollowing the incubation, the plates were removed from the incubator and sealed with adhesive clear plate seals. The plates were then centrifuged for 10 minutes at 1800×g at room temperature. […] of plasma was removed from each well and transferred to a 96-well polypropylene round bottom master plate, which was then sealed and frozen at −80° C. until all samples from the respective cohort were generated. Once all samples from a given cohort were generated, the samples were analyzed for cytokine (TNF-α, IL-1b, IL-6, and IL-8) production using Meso Scale Discovery Technology.\nAnalysis of Cytokine Levels Using Meso Scale Discovery Technology. All lipopolysaccharide plasma samples were analyzed for cytokine production with a V-Plex Human Proinflammatory Panel II (4-Plex) Kit from Meso Scale Discovery (Rockville, MD). The master plates containing the plasma samples were thawed on ice, and a daughter plate consisting of a 25-fold dilution of each plasma sample (3 μL of plasma plus 72 μL of Meso Scale Discovery Diluent 2) was generated for each master plate. The diluted plasma samples from the daughter plates were used in the cytokine analysis. The Meso Scale Discovery 4-plex plates were washed 3 times with 150 μL/well of wash buffer (1×KPL phosphate buffered saline with Tween 20 from SeraCare [Milford, MA]). Prepared calibrators and the samples from the daughter plates were added to the washed Meso Scale Discovery 4-plex plates at 50 μL/well. The 4-plex plates were sealed and shaken overnight at 4° C.\nAfter the overnight incubation, the samples were removed by decanting. The 4-plex plates were then washed 3 times with 150 μL/well of wash buffer. […]",
  "note": "Values joined by “and” are separate entries in the source; they are usually repeats but may differ in a detail not shown here. Equal values may be shown once.",
  "data": [
    {"smiles": "Cc1cnc(-c2ccnc(C(C)(C)O)n2)cc1-n1c(C)cc(OCc2ncc(F)cc2F)c(Cl)c1=O", "note": "(single isomer, unassigned) [ATI-450, 3-chloro-4-((3,5-difluoropyridin-2-yl)methoxy)-2′-(2-(2-hydroxypropan-2-yl)pyrimidin-4-yl)-5′,6-dimethyl-2H-[1,4′-bipyridin]-2-one]", "values": [
      {"measurement": "Cmax (Multiple of IC80)", "setting": "50 mg BID, day 7", "result": 5.6, "unit": "x"},
      {"measurement": "Ctrough (Multiple of IC80)", "setting": "50 mg BID, day 7", "result": 2.3, "unit": "x"},
      {"measurement": "IC80", "setting": "Homo sapiens, calculated from IC50, combined SAD and MAD data, read-out: IC80, plasma concentration at 80% of maximal inhibition", "result": 0.0388, "unit": "µg/mL"},
      {"measurement": "IC50", "setting": "Homo sapiens, inhibitory Emax model, combined SAD and MAD data, read-out: IC50, plasma concentration at half maximal inhibition", "result": 0.0097, "unit": "µg/mL"},
      {"measurement": "IC80, plasma concentration at 80% of maximal inhibition", "setting": "calculated from IC50, combined SAD and MAD data", "result": 0.0388, "unit": "µg/mL"},
      {"measurement": "Imax, maximum percent inhibition", "setting": "inhibitory Emax model", "result": "57% and 57.1%"}
    ]}
  ]
}
